Target: T1, human RXFP1 (Homo sapiens, UniProt Q9HBX9)
T1 construct: expressed in transfected cells
T1 sequence (Q9HBX9 1-757): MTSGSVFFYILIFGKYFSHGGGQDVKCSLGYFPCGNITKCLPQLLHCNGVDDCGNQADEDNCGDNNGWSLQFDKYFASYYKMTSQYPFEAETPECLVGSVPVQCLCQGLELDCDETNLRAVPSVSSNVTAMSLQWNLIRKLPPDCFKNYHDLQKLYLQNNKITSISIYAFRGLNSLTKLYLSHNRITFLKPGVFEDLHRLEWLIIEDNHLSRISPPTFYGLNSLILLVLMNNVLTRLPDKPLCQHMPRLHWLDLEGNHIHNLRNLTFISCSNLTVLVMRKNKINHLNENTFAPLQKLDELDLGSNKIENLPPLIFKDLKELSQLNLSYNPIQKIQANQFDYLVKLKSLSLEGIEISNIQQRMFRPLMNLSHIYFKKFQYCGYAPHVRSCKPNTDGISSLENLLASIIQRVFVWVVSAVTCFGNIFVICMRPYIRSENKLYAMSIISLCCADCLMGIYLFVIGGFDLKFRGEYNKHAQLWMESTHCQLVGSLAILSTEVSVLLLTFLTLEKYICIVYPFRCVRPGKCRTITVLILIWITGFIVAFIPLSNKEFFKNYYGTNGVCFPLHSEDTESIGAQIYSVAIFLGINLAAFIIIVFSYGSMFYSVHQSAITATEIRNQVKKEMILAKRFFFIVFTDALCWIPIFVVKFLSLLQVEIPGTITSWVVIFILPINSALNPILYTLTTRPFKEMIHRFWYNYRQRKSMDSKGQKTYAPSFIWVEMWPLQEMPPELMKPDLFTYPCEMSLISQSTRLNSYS
Assay: RXFP1 cAMP assay (hRXFP1 HEK293 cAMP assay, HTRF)
Format: cell-based
Conditions: HEK293 cells stably expressing human RXFP1, 30 min at room temperature, read-out: cAMP hRXFP1 HEK293 Assay EC50
Summary of the method: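 In a stable human RXFP1 HEK293 line, compounds acted for 30 min at RT in buffer with 0.5 mM IBMX. HTRF then quantified cellular cAMP.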

| EC50 [nM] | SMILES |
| --- | --- |
| 3.6 | COc1ccc(C2=NOC3CC(C(O)C(F)(F)F)CC23)cc1C(=O)N[C@H]1[C@@H](C(=O)Nc2ccc(F)c(C(F)(F)F)c2)[C@H]2CC[C@@H]1/C2=C\C1CC1 (stereo partly drawn) [compound 853] |
| 770 | COc1cc(F)c(F)cc1C(=O)N[C@@H]1C2CCC(/C2=C/c2ccncc2)[C@@H]1C(=O)Nc1ccc(F)c(C(F)(F)F)c1 (stereo partly drawn) [compound 16] |
| 11 | COc1ccc(-c2cnc3nn(CC(=O)O)cc3c2)cc1C(=O)N[C@@H]1C2CCC(/C2=C/C(F)(F)F)[C@@H]1C(=O)Nc1ccc(F)c(C(F)(F)F)c1 (stereo partly drawn) [compound 318] |
| 1 | COc1ccc(-c2cc(C(OC(=O)NC3CCC3)C(F)F)ccc2F)cc1C(=O)N[C@H]1[C@@H](C(=O)Nc2ccc(F)c(C(F)(F)F)c2)[C@H]2CC[C@@H]1/C2=C\C1CC1 (single isomer, unassigned) [Example 230] |
| 67.8 | COc1ccc(C2=NO[C@H]3[C@@H]2CC[C@@H]3O)cc1C(=O)N[C@H]1[C@@H](C(=O)Nc2ccc(F)c(C(F)(F)F)c2)[C@H]2CC[C@@H]1/C2=C\C1CC1 (single isomer, unassigned) [compound 574] |
| 1.8 | COc1ccc(-c2cc(C(COC(=O)Nc3ccccc3)C(F)(F)F)ccc2F)cc1C(=O)N[C@H]1[C@@H](C(=O)Nc2ccc(F)c(C(F)(F)F)c2)[C@H]2CC[C@@H]1/C2=C\C1CC1 (stereo partly drawn) [compound 875] |
| 1 | COc1ccc(-c2cc(C(OC(=O)NC3CCC3)C(F)(F)F)ccc2F)cc1C(=O)N[C@@H]1C2CCC(/C2=C/C2CC2)[C@@H]1C(=O)Nc1ccc(F)c(C(F)(F)F)c1 (stereo partly drawn) [compound 211] |
| 196 | COc1ccc(N2CCCC2=O)cc1C(=O)N[C@H]1[C@@H](C(=O)Nc2ccc(F)c(C(F)(F)F)c2)[C@H]2CC[C@@H]1/C2=C\C1CC1 [compound 636] |
| 1560 | COc1ccc(C2=NOC3(C2)CC(CO)C3)cc1C(=O)N[C@H]1[C@@H](C(=O)Nc2ccc(F)c(C(F)(F)F)c2)[C@H]2CC[C@@H]1/C2=C\C1CC1 (single isomer, unassigned) [compound 711] |
| 0.8 | COc1ccc(C2=NO[C@H]3C[C@H](CO)C[C@@H]23)cc1C(=O)N[C@H]1[C@@H](C(=O)N[C@H](C)C2(C)CC2)[C@H]2CC[C@@H]1/C2=C\CCC(F)(F)F [compound 812] |
| 62.7 | COc1ccc(C2=NOC3COCC23)cc1C(=O)N[C@H]1[C@@H](C(=O)NCc2c(Cl)cccc2Cl)[C@H]2CC[C@@H]1/C2=C\C1CC1 (stereo partly drawn) [compound 570] |
| 67 | CCOC(=O)Cn1cc(-c2ccc(OC)c(C(=O)N[C@@H]3C4CCC(/C4=C/c4ccccc4)[C@@H]3C(=O)Nc3ccc(F)c(C(F)(F)F)c3)c2)cn1 (stereo partly drawn) [compound 339] |
| 2.1 | COc1ccc(-c2cc([C@H](OC(=O)NC3CCC3)C(F)(F)F)ccc2F)cc1C(=O)N[C@H]1[C@@H](C(=O)N[C@H](C)C2(C)CC2)[C@H]2CC[C@@H]1/C2=C\C1CC(F)(F)C1 [compound 967] |
| 92.7 | COc1ccc(C2=NOC(C(C)O)C2)cc1C(=O)N[C@H]1[C@@H](C(=O)Nc2ccc(F)c(C(F)(F)F)c2)[C@H]2CC[C@@H]1/C2=C\C1CC1 (single isomer, unassigned) [compound 595] |
| 3.9 | COc1c(F)cc(C2=NOC(CO)C2)cc1C(=O)N[C@H]1[C@@H](C(=O)Nc2ccc(F)c(C(F)(F)F)c2)[C@H]2CC[C@@H]1/C2=C\CC(O)C(F)(F)F (stereo partly drawn) [compound 835] |
| 2.3 | COc1ccc(C2=NO[C@H]3COC[C@@H]23)cc1C(=O)N[C@H]1[C@@H](C(=O)Nc2ccc(F)c(C(F)(F)F)c2)[C@H]2CC[C@@H]1/C2=C\C1CCCC1 [compound 819] |
| 1.8 | COc1ccc(C2=NOC3CC(O)(C(F)(F)F)CC23)cc1C(=O)N[C@H]1[C@@H](C(=O)N[C@H](C)C2(C)CC2)[C@H]2CC[C@@H]1/C2=C\C1CC1 (stereo partly drawn) [compound 859] |
| 3 | COc1ccc(C2=NO[C@@H]3C[C@H](CO)CN23)cc1C(=O)N[C@H]1[C@@H](C(=O)N[C@H](C)C2(C)CC2)[C@H]2CC[C@@H]1/C2=C\C1CC1 [compound 768] |
| 1 | COc1ccc(-c2cc(C(NC(=O)C3CCOCC3)C(=O)O)ccc2F)cc1C(=O)N[C@@H]1C2CCC(/C2=C/C(F)(F)F)[C@@H]1C(=O)Nc1ccc(F)c(C(F)(F)F)c1 (stereo partly drawn) [compound 239] |
| 6.8 | COc1ccc(-c2cc(C3=NOC(CO)C3)ccc2F)cc1C(=O)N[C@H]1[C@@H](C(=O)Nc2ccc(F)c(C(F)(F)F)c2)[C@H]2CC[C@@H]1/C2=C\C1CC1 (stereo partly drawn) [compound 906] |
| 9 | COc1ccc(N2CCCCS2(=O)=O)cc1C(=O)N[C@@H]1C2CCC(/C2=C/C2CC2)[C@@H]1C(=O)Nc1ccc(F)c(C(F)(F)F)c1 (stereo partly drawn) [compound 373] |

| EC50 [nM] | SMILES |
| --- | --- |
| 130 | COc1ccc(-c2cc(C(=O)NS(C)(=O)=O)ccc2F)cc1C(=O)N[C@@H]1C2CCC(C2=C(C)C)[C@@H]1C(=O)Nc1ccc(F)c(C(F)(F)F)c1 (stereo partly drawn) [compound 131] |
| 4.9 | COc1ccc(C2=NO[C@H]3COC[C@@H]23)cc1C(=O)N[C@H]1[C@@H](C(=O)N[C@H](C)C2(C)CC2)[C@H]2CC[C@@H]1/C2=C\C1CC(F)(F)C1 [compound 842] |
| 3900 | CC(C)=C1C2CCC1[C@H](C(=O)Nc1ccc(F)c(C(F)(F)F)c1)[C@@H]2NC(=O)c1ccccc1N(C)C (stereo partly drawn) [compound 119] |
| 4.2 | COc1cc(C)c(-c2nnc(CO)s2)cc1C(=O)N[C@H]1[C@@H](C(=O)Nc2ccc(F)c(C(F)(F)F)c2)[C@H]2CC[C@@H]1/C2=C\C1CC1 [compound 808] |
| 4.1 | COc1ccc(C2=NOC3CC(CO)CC23)cc1C(=O)N[C@H]1[C@@H](C(=O)Nc2ccc(F)c(C(F)(F)F)c2)[C@H]2CC[C@@H]1/C2=C\c1csc(C)n1 (stereo partly drawn) [compound 805] |
| 66.4 | COc1ccc(C2=NOC3COCC23)cc1C(=O)N[C@H]1[C@@H](C(=O)NCC2(c3ccccc3)CC2)[C@H]2CC[C@@H]1/C2=C\C1CC1 (stereo partly drawn) [compound 572] |
| 22.9 | COc1cc(C)c(C2=NOC3COCC23)cc1C(=O)N[C@H]1[C@@H](C(=O)Nc2ccc(F)c(C(F)(F)F)c2)[C@H]2CC[C@@H]1/C2=C\C1CC1 (stereo partly drawn) [compound 532] |
| 3.6 | COc1ccc(-c2cc(C3=NOC4CC(CO)CC34)ccc2F)cc1C(=O)N[C@H]1[C@@H](C(=O)Nc2ccc(F)c(C(F)(F)F)c2)[C@H]2CC[C@@H]1/C2=C\C1CCCC1 (stereo partly drawn) [compound 949] |
| 23 | COc1ccc(C2=NOC(CO)C2)cc1C(=O)N[C@@H]1C2CCC(/C2=C/C2CC2)[C@@H]1C(=O)Nc1ccc(F)c(C(F)(F)F)c1 (stereo partly drawn) [compound 380] |
| 1860 | COc1ccc(Br)cc1C(=O)N[C@@H]1C2CCC(/C2=C/C(F)(F)F)[C@@H]1C(=O)Nc1ccc(F)c(C(F)(F)F)c1 (stereo partly drawn) [compound 292] |
| 1030 | COc1ccc(C2=NC[C@H]3CCCN23)cc1C(=O)N[C@H]1[C@@H](C(=O)Nc2ccc(F)c(C(F)(F)F)c2)[C@H]2CC[C@@H]1/C2=C\C1CC1 [Example 699] |
| 20 | COc1ccc(C2=NOC(CO)C2)cc1C(=O)N[C@@H]1C2CCC(/C2=C/C2CC2)[C@@H]1C(=O)Nc1ccc(F)c(C(F)(F)F)c1 (stereo partly drawn) [compound 381] |
| 580 | COc1ccc(-c2cccc(C(=O)O)c2OC)cc1C(=O)N[C@H]1[C@@H](C(=O)Nc2ccc(F)c(C(F)(F)F)c2)[C@H]2CC[C@@H]1C2=C(C)C [compound 101] |
| 55 | COc1cc(F)c(F)cc1C(=O)N[C@@H]1C2CCC(/C2=C/c2ccc(Cl)cc2)[C@@H]1C(=O)Nc1ccc(F)c(C(F)(F)F)c1 (stereo partly drawn) [compound 21] |
| 3.6 | COc1ccc(-c2cc(C(N)C(=O)O)ccc2F)cc1C(=O)NC1[C@@H]2CC[C@@H](/C2=C/C2CC2)[C@@H]1C(=O)Nc1ccc(F)c(C(F)(F)F)c1 (stereo partly drawn) [compound 969] |
| 380 | COc1ccc(-c2cn(C)nc2C)cc1C(=O)N[C@H]1[C@@H](C(=O)Nc2ccc(F)c(C(F)(F)F)c2)[C@H]2CC[C@@H]1C2=C(C)C [compound 92] |
| 1400 | COc1ccc(-n2nccc2C(=O)O)cc1C(=O)N[C@@H]1C2CCC(/C2=C/C(F)(F)F)[C@@H]1C(=O)Nc1ccc(F)c(C(F)(F)F)c1 (stereo partly drawn) [compound 345] |
| 3 | COc1ccc(-c2cc(C(O)C(=O)O)ccc2F)cc1C(=O)NC1C2CCC(/C2=C/C2CCCC2)C1C(=O)Nc1ccc(F)c(C(F)(F)F)c1 (stereo not drawn) [compound 355] |
| 90 | COC(=O)c1cnn2cc(-c3ccc(OC)c(C(=O)N[C@@H]4C5CCC(/C5=C/C(F)(F)F)[C@@H]4C(=O)Nc4ccc(F)c(C(F)(F)F)c4)c3)ccc12 (stereo partly drawn) [compound 313] |
| 83.5 | COc1ccc(C2=NOC3COCC23)cc1C(=O)N[C@H]1[C@@H](C(=O)NC2CCC(C(F)(F)F)C2)[C@H]2CC[C@@H]1/C2=C\C1CC1 (single isomer, unassigned) [Example 589] |
| 1380 | COc1ccc(-c2cc(C(=O)O)ccc2F)cc1C(=O)N[C@@H]1C2CCC(/C2=C/C2CC2)[C@@H]1C(=O)Nc1ccc(F)c(F)c1F (stereo partly drawn) [compound 305] |

Reference: patent US20250221966A1, “RXFP1 AGONISTS” (BRISTOL-MYERS SQUIBB COMPANY, priority 2021, published 2025)
